According to ChEMBL document CHEMBL1201862, “PubChem BioAssay data set” (2004):
Several values for one entry are separate records, joined by “and”; a condition that tells them apart may be missing. Equal entries are not always repeated.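 Values below derive from 48-hour exposures of cells grown in 96-well plates, with endpoints linearly interpolated between the two concentrations bracketing the appropriate inhibition level. GI50 marks 50% less growth.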 Activity calls are given as the source filed them. Rule as the data show it: active = GI50 up to about 1.1 µM and inactive = higher.

How the values were obtained:
Experiment in all cases: NCI anticancer screen, dose series, 48 h
786-0 = system: 786-0
A549 = system: A549
ACHN = system: ACHN
CAKI-1 = system: CAKI-1
CCRF-CEM = system: CCRF-CEM
COLO 205 = system: COLO 205
HL-60 = system: HL-60
HOP-62 = system: HOP-62
HOP-92 = system: HOP-92
IGROV-1 = system: IGROV-1
K562 = system: K562
M14 = system: M14
MCF7 = system: MCF7
MDA-MB-435 = system: MDA-MB-435
MOLT-4 = system: MOLT-4
Malme-3M = system: Malme-3M
NCI-H23 = system: NCI-H23
NCI-H460 = system: NCI-H460
NCI/ADR-RES = system: NCI/ADR-RES
OVCAR-4 = system: OVCAR-4
OVCAR-5 = system: OVCAR-5
RPMI-8226 = system: RPMI-8226
RXF 393 = system: RXF 393
SF-268 = system: SF-268
SK-MEL-28 = system: SK-MEL-28
SK-MEL-2 = system: SK-MEL-2
SK-MEL-5 = system: SK-MEL-5
SK-OV-3 = system: SK-OV-3
SNB-75 = system: SNB-75
SR = system: SR
SW-620 = system: SW-620
T47D = system: T47D
U-251 = system: U-251
UACC-62 = system: UACC-62
DU-145 = system: DU-145
EKVX = system: EKVX
HCC 2998 = system: HCC 2998
HCT-15 = system: HCT-15
HT-29 = system: HT-29
KM12 = system: KM12
LOX IMVI = system: LOX IMVI
MDA-N = system: MDA-N
NCI-H522 = system: NCI-H522
OVCAR-3 = system: OVCAR-3
OVCAR-8 = system: OVCAR-8
SN12C = system: SN12C
UACC-257 = system: UACC-257

| SMILES | GI50 (A549) | GI50 (CAKI-1) | GI50 (CCRF-CEM) | GI50 (COLO 205) | GI50 (HL-60) | GI50 (IGROV-1) | GI50 (K562) | GI50 (M14) | GI50 (MCF7) | GI50 (MDA-MB-435) | GI50 (MOLT-4) | GI50 (Malme-3M) | GI50 (NCI-H23) | GI50 (NCI-H460) | GI50 (NCI/ADR-RES) | GI50 (OVCAR-4) | GI50 (SF-268) | GI50 (SK-MEL-28) | GI50 (SK-MEL-2) | GI50 (SK-MEL-5) | also measured |
| --- | --- | --- | --- | --- | --- | --- | --- | --- | --- | --- | --- | --- | --- | --- | --- | --- | --- | --- | --- | --- | --- |
| C=CCNc1nc(C#N)c(N)s1 | > 10 µM (inactive) | > 10 µM (inactive) | > 10 µM (inactive) | > 10 µM (inactive) | > 10 µM (inactive) | > 10 µM (inactive) | > 10 µM (inactive) | > 10 µM (inactive) | > 10 µM (inactive) | > 10 µM (inactive) | > 10 µM (inactive) | > 10 µM (inactive) | > 10 µM (inactive) | > 10 µM (inactive) | > 10 µM (inactive) | > 10 µM (inactive) | > 10 µM (inactive) | > 10 µM (inactive) | > 10 µM (inactive) | > 10 µM (inactive) | GI50 (786-0): > 10 µM (inactive); GI50 (ACHN): > 10 µM (inactive); GI50 (HOP-62): > 10 µM (inactive); GI50 (HOP-92): > 10 µM (inactive); GI50 (OVCAR-5): > 10 µM (inactive); GI50 (RPMI-8226): > 10 µM (inactive); GI50 (RXF 393): > 10 µM (inactive); GI50 (SK-OV-3): > 10 µM (inactive); GI50 (SNB-75): > 10 µM (inactive); GI50 (SR): > 10 µM (inactive); GI50 (SW-620): > 10 µM (inactive); GI50 (T47D): > 10 µM (inactive); GI50 (U-251): > 10 µM (inactive); GI50 (UACC-62): > 10 µM (inactive) |
| CCc1c(C)c(C#N)c(=S)n(C2OC(COC(C)=O)C(OC(C)=O)C(OC(C)=O)C2OC(C)=O)c1C (stereo unspecified) | 92.9 µM (inactive) | > 100 µM (inactive) | > 100 µM (inactive) | > 100 µM (inactive) | > 100 µM (inactive) | > 100 µM (inactive) | > 100 µM (inactive) | 39.4 µM (inactive) and 46.2 µM (inactive) | > 100 µM (inactive) | > 100 µM (inactive) | > 100 µM (inactive) | > 100 µM (inactive) | > 100 µM (inactive) | > 100 µM (inactive) | > 100 µM (inactive) | > 100 µM (inactive) and 80.7 µM (inactive) | > 100 µM (inactive) and 73.5 µM (inactive) | > 100 µM (inactive) | 13 µM (inactive) | > 100 µM (inactive) | GI50 (DU-145): > 100 µM (inactive); GI50 (EKVX): 87.1 µM (inactive); GI50 (HCC 2998): > 100 µM (inactive); GI50 (HCT-15): > 100 µM; GI50 (HT-29): > 100 µM (inactive); GI50 (KM12): > 100 µM (inactive); GI50 (LOX IMVI): > 100 µM (inactive); GI50 (MDA-N): > 100 µM (inactive); GI50 (NCI-H522): > 100 µM (inactive) and 52.8 µM (inactive); GI50 (OVCAR-3): > 100 µM (inactive); GI50 (OVCAR-8): > 100 µM (inactive); GI50 (SN12C): > 100 µM (inactive); GI50 (SNB-75): 0.0113 µM (active); GI50 (SR): > 100 µM (inactive); GI50 (SW-620): > 100 µM (inactive); GI50 (T47D): > 100 µM (inactive); GI50 (UACC-257): > 100 µM (inactive) |
